Measurements reported in the NIST ThermoML archive (doi:10.1016/j.jct.2017.05.010).
± gives the expanded uncertainty stated by the source.

Details: 101.33 kPa, Liquid, Single path-length method

Compound: CCCCOCCCN [3-butoxy-1-propanamine]
- speed of sound (283.15 K): 1387.3 ± 1.7 m/s
- speed of sound (288.15 K): 1367.3 ± 1.7 m/s
- speed of sound (293.15 K): 1346.7 ± 1.7 m/s
- speed of sound (298.15 K): 1326.4 ± 1.7 m/s
- speed of sound (303.15 K): 1306.7 ± 1.7 m/s
